# PMC7374170, “TRIB3-EGFR interaction promotes lung cancer progression and defines a therapeutic target” (Nature Communications, 2020)
# Columns and labels:
# [1] = system: EGFR signaling proteins in xenograft tumors; experiment: Immunoblot / CO-IP of xenograft tumor tissue; assay type: in vivo; details: NCI-H1975 inoculated mice, long-term treatment
# Method: Data in a–d are presented as means ± SEM, n = 8. e The EGFR–TRIB3 or EGFR–PKCα interaction in xenograft tumors from indicated mice were detected with CO-IP assays. […] Data are means ± SEM of three independent assays. Statistical significance between two groups was determined with two-tailed Student’s t test. Statistical significance among groups was determined by one-way ANOVA test.
# Data are means ± SEM, n = 8. d, EGFR and its signaling proteins in xenograft tumors from NCI-H1975 inoculated mice were detected by IB. e, Stem cell markers in xenograft tumors from NCI-H1975 inoculated mice mice were detected by IB. f, Expressions of TRIB3 and EGFR were detected by IB in tumor samples from PDX mice. g, NCI-H1975 cells were treated with 5 µM of the indicated peptides or 0.5 µM AZD9291for 24 hr. The expression of indicated proteins was detected with IB. h, NCI-H1975 cells were treated with 5 µM of the indicated peptides for 24 hr. The expression of several receptor tyrosine kinases was detected with IB. i, NCI-H1975 cells were pretreated with 5 µM of the indicated peptides for 12 hr. […] The indicated proteins were detected by IB. […] Statistical significance between two groups was determined by two-tailed Student’s t-test; Statistical significance among groups was determined by one-way ANOVA test. […]
# analysis. Signals were detected by Tanon 5200 chemiluminescent imaging system (Tanon, […]
# NCI-H1975 cells [2] = experiment: Immunoblot of EGFR, HER2 and receptor tyrosine kinases, NCI-H1975 cells; assay type: cell-based, human
# Method: Data are means ± SEM, n = 8. d, EGFR and its signaling proteins in xenograft tumors from NCI-H1975 inoculated mice were detected by IB. e, Stem cell markers in xenograft tumors from NCI-H1975 inoculated mice mice were detected by IB. f, Expressions of TRIB3 and EGFR were detected by IB in tumor samples from PDX mice. g, NCI-H1975 cells were treated with 5 µM of the indicated peptides or 0.5 µM AZD9291for 24 hr. The expression of indicated proteins was detected with IB. h, NCI-H1975 cells were treated with 5 µM of the indicated peptides for 24 hr. The expression of several receptor tyrosine kinases was detected with IB. i, NCI-H1975 cells were pretreated with 5 µM of the indicated peptides for 12 hr. The cells were then incubated with CHX (10 µg ml-1) for indicated times. The indicated proteins were detected by IB. Data are means ± SEM of 3 independent assays. Data in d-h are representatives of 3 independent assays. Statistical significance between two groups was determined by two-tailed Student’s t-test; Statistical significance among groups was determined by one-way ANOVA test. Source data are provided as a Source Data ﬁle.
# Immunoblotting, Immunostaining and Immunohistochemistry
# Proteins were extracted from cells and tissues using a RIPA lysis buffer (Applygen
# Technologies Inc. Beijing, China). Equal protein amounts were loaded for SDS-PAGE,
# followed by transfer to polyvinylidene difluoride membranes, and subjected to immunoblot
# analysis. Signals were detected by Tanon 5200 chemiluminescent imaging system (Tanon,
# Shanghai, China). The western blots were scanning densitometry using Gel Pro Analyzer 3.2
# and calculated relative to GAPDH. If not specifically indicated, the data was presented as means
# ± SEMs of 3 independent biological experiments.
# NCI-H1975 cells [3] = experiment: NCI-H1975 subcutaneous xenograft (tumor growth, tumor weight, metastasis); assay type: in vivo, BALB/c nude mice; details: dose not given
# proteinase K = experiment: Metabolic stability of peptide: proteinase K resistance; assay type: in vitro ADME; details: panel Fig.S6e
# Method: Metabolic stability of peptide
# The sample solution consisted of 15 µl peptide solution (1 mM ) and 585 µl Tris-HCl (pH = 7.4) buffer. Pepsin solution (4,500 U ml-1, 8 µl) or proteinase K solution (4 ng ml-1, 8 µl) was added to the sample solution and incubated at 25℃ for indicated times. Peptide concentrations were […]
# detected by Exactive™ Plus Orbitrap (Thermo Fisher Scientific, USA). […]
# A549 cells = experiment: A549 subcutaneous xenograft (tumor growth, tumor weight, liver metastasis); assay type: in vivo, BALB/c nude mice; details: dose not given
# Source text: Fig. 7 Targeting EGFR stability inhibits lung cancer initiation and progression. a A549 tumor growth curves under different treatment. b Quantitative analysis of metastatic nodule numbers from mice as described in a. c NCI-H1975 tumor growth curves under different treatment. d Quantitative analysis of metastatic nodule numbers from mice as described in c. Data in a–d are presented as means ± SEM, n = 8. e The EGFR–TRIB3 or EGFR–PKCα interaction in xenograft tumors from indicated mice were detected with CO-IP assays. […] Statistical difference was determined by two-sided log-rank test, n = 14. i Survival curves for mice orthotopically lung implanted with NCI-H1975 cells under indicated treatment. […] Data are means ± SEM of three independent assays. Statistical significance between two groups was determined with two-tailed Student’s t test. Statistical significance among groups was determined by one-way ANOVA test. Source data are provided as a Source Data file. […]
# a, Quantified tumor weight from mice subcutaneously inoculated with A549 cells under indicated treatment after tumor inoculation. Data are means ± SEM, n = 8. b, Representative graphs of liver and immunohistochemical staining of the liver sections with anti-hMitochondria […]
# IB. Data are means ± SEM of 3 independent assays. Data in d-h are representatives of 3 independent assays. Statistical significance between two groups was determined by two-tailed Student’s t-test; Statistical significance among groups was determined by one-way ANOVA test. Source data are provided as a Source Data ﬁle.
# For the subcutaneous tumor model, A549 (1.0×10 5), NCI-H1975 (3.0×105) or patient-derived NSCLC cancer cells (4.0×105) were injected subcutaneously into the right flank of each mouse to establish the NSCLC xenograft model. When average tumor volume reached about 100 mm3, mice were randomized into various groups for different sets of experiments. Tumor growth was monitored twice weekly with a caliper. Tumor volume (TV) was calculated using the formula: […]
# [4] = system: cell surface EGFR in A549 cells; experiment: Cell surface EGFR by flow cytometry, A549; assay type: cell-based, human
# Method: Fig. 2 TRIB3 promotes EGFR recycling to enhance its stability and signaling activity. a Control or TRIB3-silenced A549 cells were treated with cycloheximide (CHX) (10 µg ml^−1) at indicated intervals and protein stability of EGFR was analyzed by IB. Data are means ± SEM of four independent assays. b A549 cells stably expressed control-shRNA or TRIB3-shRNA plasmid were stimulated with or without EGF (100 ng ml^−1) for 1 h. Indicated proteins were analyzed by IB analysis. Data represent means ± SEM of three independent assays. c Confocal microscopy images show the distribution of EGFR and early endosome antigen 1 (EEA-1) in control or TRIB3-silenced A549 cells before and after 0.5 or 1 h of EGF (100 ng ml^−1) stimulation. Quantification of EGFR and EEA-1 colocalization was shown as Pearson’s coefficient. Data are means ± SEM of three independent assays. d Quantitative analyses of cell surface EGFR in A549 cells stably expressed control-shRNA or TRIB3-shRNA1. Cells were preincubated with DMSO or 10 μM monensin for 4 h, and then treated with or without EGF (100 ng ml^−1) for another 1 h. The Mean Fluorescence Intensity (MFI) of EGFR on cell surface was detected by flow cytometry analysis. Top: representative flow cytometry data. Bottom: the data were normalized to A549/control-shRNA cells without EGF stimulation, which was considered as 100% MFI signal. Data are means ± SEM of three independent assays. e EGFR recycling was detected in A549 cells stably expressed control-shRNA or TRIB3-shRNA1 plasmid. Data are means ± SEM of three independent assays. f Colocalization analysis of EGFR with Rab11 and LAMP-1 before or after 30 min EGF treatment in control and TRIB3-silenced A549 cells. Quantification of EGFR/Rab11 or EGFR/LAMP-1 colocalization was shown as Pearson’s coefficient. Data represent means ± SEM of three independent assays. Statistical significance between two groups was determined with two-tailed Student’s t test. Statistical significance among groups was determined by one-way ANOVA test. Source data are provided as a Source Data file. […]
# Live cells were stained with Alexa-Fluro 488 anti-EGFR antibody (Santa Cruz, R-1, #sc-101
# AF488, 1:100). Analysis was performed using a PARTEC EPICSXL (Germany) and data was
# analyzed using FCS Express 6. […]
# [5] = H1975 cells, treatment for 12 hr
molecule,measurement,setting,value
C=CC(=O)Nc1cc(Nc2nccc(-c3cn(C)c4ccccc34)n2)c(OC)cc1N(C)CCN(C)C [AZD9291],"expression / phosphorylation of STAT3, STAT5 (and ERK1/2) in xenograft tumor tissue",[1],"upregulated the expression and phosphorylation of STAT3, STAT5, and ERK1/2"
same,expression of EGFR and TRIB3 in xenograft tumor tissue,[1],reduced TRIB3 and EGFR expression
same,"expression of pEGFR T654, PKCα, TRIB3 and EGFR",NCI-H1975 cells [2]; [5],had no effect
same,pEGFR Y1068,NCI-H1975 cells [2]; [5],markedly reduced
same,phosphorylation and expression of HER2,"NCI-H1975 cells [2]; NCI-H1975 cells, 5 µM peptide or 0.5 µM AZD9291, 24 hr",suppressive effect on HER2 phosphorylation
same,Tumor Weight,NCI-H1975 cells [3]; animal 1,0.09 g
same,Tumor Weight,NCI-H1975 cells [3]; animal 2,0.11 g
same,Tumor Weight,NCI-H1975 cells [3]; animal 3,0.04 g
same,Tumor Weight,NCI-H1975 cells [3]; animal 4,0.05 g
same,Tumor Weight,NCI-H1975 cells [3]; animal 5,0.07 g
same,Tumor Weight,NCI-H1975 cells [3]; animal 6,0.08 g
same,Tumor Weight,NCI-H1975 cells [3]; animal 7,0.02 g
same,Tumor Weight,NCI-H1975 cells [3]; animal 8,0.08 g
CC[C@H](C)[C@H](NC(=O)[C@H](CCCNC(=N)N)NC(=O)[C@H](CC(C)C)NC(=O)[C@H](CC(C)C)NC(=O)[C@H](C)NC(=O)[C@H](CCC(N)=O)NC(=O)[C@@H](N)CC(N)=O)C(=O)N[C@@H](CC(C)C)C(=O)N[C@@H](CCCNC(=N)N)C(=O)N[C@@H](CCC(=O)O)C(=O)N[C@H](C(=O)N[C@@H](CCC(=O)O)C(=O)N[C@@H](Cc1ccccc1)C(=O)N[C@@H](CCCCN)C(=O)N[C@@H](CCCCN)C(=O)O)[C@@H](C)O [JGZ],Fraction Intact (%),"proteinase K; time 45 min, replicate 1",15.4158%
same,Fraction Intact (%),"proteinase K; time 45 min, replicate 2",19.3884%
same,Fraction Intact (%),"proteinase K; time 45 min, replicate 3",17.4109%
same,Fraction Intact (%),"proteinase K; time 90 min, replicate 1",4.517%
same,Fraction Intact (%),"proteinase K; time 90 min, replicate 2",5.842%
same,Fraction Intact (%),"proteinase K; time 90 min, replicate 3",5.149%
same,Fraction Intact (%),"proteinase K; time 135 min, replicate 1",1.978%
same,Fraction Intact (%),"proteinase K; time 135 min, replicate 2",2.87%
same,Fraction Intact (%),"proteinase K; time 135 min, replicate 3",2.235%
same,Fraction Intact (%),"proteinase K; time 180 min, replicate 1",0.9859%
same,Fraction Intact (%),"proteinase K; time 180 min, replicate 2",1.636%
same,Fraction Intact (%),"proteinase K; time 180 min, replicate 3",1.16%
same,Fraction Intact (%),"proteinase K; time 225 min, replicate 1",0.5923%
same,Fraction Intact (%),"proteinase K; time 225 min, replicate 2",0.9865%
same,Fraction Intact (%),"proteinase K; time 225 min, replicate 3",0.582%
same,Fraction Intact (%),"proteinase K; time 270 min, replicate 1",0.003342%
same,Fraction Intact (%),"proteinase K; time 270 min, replicate 2",0.3276%
same,Fraction Intact (%),"proteinase K; time 270 min, replicate 3",0.1279%
same,Fraction Intact (%),"proteinase K; time 360 min, replicate 1",0%
same,Fraction Intact (%),"proteinase K; time 360 min, replicate 2",0.07064%
same,Fraction Intact (%),"proteinase K; time 360 min, replicate 3",0.09951%
same,Fraction Intact (%),"proteinase K; time 450 min, replicate 1",0%
same,Fraction Intact (%),"proteinase K; time 450 min, replicate 2",0.04231%
same,Fraction Intact (%),"proteinase K; time 450 min, replicate 3",0.01388%
same,Fraction Intact (%),"proteinase K; time 540 min, replicate 1",0%
same,Fraction Intact (%),"proteinase K; time 540 min, replicate 2",0.01049%
same,Fraction Intact (%),"proteinase K; time 540 min, replicate 3",0.003119%
COc1cc2ncnc(Nc3ccc(F)c(Cl)c3)c2cc1OCCCN1CCOCC1 [gefitinib],Tumor Weight,A549 cells; animal 1,0.95 g
same,Tumor Weight,A549 cells; animal 2,0.28 g
same,Tumor Weight,A549 cells; animal 3,0.5 g
same,Tumor Weight,A549 cells; animal 4,0.76 g
same,Tumor Weight,A549 cells; animal 5,0.71 g
same,Tumor Weight,A549 cells; animal 6,0.63 g
same,Tumor Weight,A549 cells; animal 7,0.92 g
same,Tumor Weight,A549 cells; animal 8,0.87 g
same,Tumor Weight,NCI-H1975 cells [3]; animal 1,0.19 g
same,Tumor Weight,NCI-H1975 cells [3]; animal 2,0.56 g
same,Tumor Weight,NCI-H1975 cells [3]; animal 3,0.23 g
same,Tumor Weight,NCI-H1975 cells [3]; animal 4,0.63 g
same,Tumor Weight,NCI-H1975 cells [3]; animal 5,0.13 g
same,Tumor Weight,NCI-H1975 cells [3]; animal 6,0.48 g
same,Tumor Weight,NCI-H1975 cells [3]; animal 7,0.33 g
same,Tumor Weight,NCI-H1975 cells [3]; animal 8,0.37 g
"EGF: epidermal growth factor used as stimulus, 100 ng ml−1",Cell Surface EGFR(%MFI),"[4]; A549/Control-shRNA, DMSO or 10 μM monensin 4 h, then EGF 100 ng ml−1 1 h, flow cytometry, A549/control-shRNA without EGF = 100%, replicate 1",80.5481 %MFI
same,Cell Surface EGFR(%MFI),"[4]; A549/Control-shRNA, same treatment, replicate 2",86.3646 %MFI
same,Cell Surface EGFR(%MFI),"[4]; A549/Control-shRNA, same treatment, replicate 3",89 %MFI
same,Cell Surface EGFR(%MFI),"[4]; A549/TRIB3-shRNA, DMSO or 10 μM monensin 4 h, then EGF 100 ng ml−1 1 h, flow cytometry, A549/control-shRNA without EGF = 100%, replicate 1",27.82 %MFI
same,Cell Surface EGFR(%MFI),"[4]; A549/TRIB3-shRNA, same treatment, replicate 2",26.66 %MFI
same,Cell Surface EGFR(%MFI),"[4]; A549/TRIB3-shRNA, same treatment, replicate 3",25.66 %MFI
